Literature values in PMC2787808 (Peptides, 2009).

Legend:
[1] = test system: G17-Gly binding sites on DLD-1 cells; conditions: previous study; ref [11]
[2] = test system: HT-29 cells; conditions: ref [2]

**Q.** What does the source list for “pGlu-Gly-Pro-Trp-Leu-(Glu)5-Ala-Tyr [G17(1–12)]”?
**A.** Binding sites and affinity on DLD-1 cells [1]: binds to two sites; Stimulation of proliferation of HT-29 cells [2]: stimulates nonbiphasic proliferation
